Numbers after ± are expanded uncertainties.
Assay: xn = mol fraction of the nth substance listed
Conditions: 101 kPa, Liquid; for speed of sound: Frequency=2.75 MHz, Pulse-echo method; for mass density: Vibrating tube method

CCCC[n+]1ccn(C)c1.O=S(=O)([N-]S(=O)(=O)C(F)(F)F)C(F)(F)F + C1CCOC1
Conditions | mass density, 293.15 K [kg/m3] | mass density, 298.15 K [kg/m3] | mass density, 303.15 K [kg/m3] | mass density, 308.15 K [kg/m3] | speed of sound, 293.15 K [m/s] | speed of sound, 298.15 K [m/s] | speed of sound, 303.15 K [m/s] | speed of sound, 308.15 K [m/s]
x1 = 0.0507 | 981.03 ± 0.63 | 975.68 ± 0.62 | 970.55 ± 0.62 | 965.26 ± 0.63 | 1276.2 ± 1.2 | 1254.6 ± 1.2 | 1233.2 ± 1.2 | 1212 ± 1.2
x1 = 0.124 | 1080.62 ± 0.49 | 1075.39 ± 0.49 | 1070.15 ± 0.49 | 1064.96 ± 0.49 | 1257.3 ± 1.2 | 1238.5 ± 1.2 | 1219.9 ± 1.2 | 1201.5 ± 1.2
x1 = 0.1963 | 1153.02 ± 0.34 | 1147.88 ± 0.33 | 1142.73 ± 0.33 | 1137.6 ± 0.34 | 1246.9 ± 1.2 | 1230 ± 1.2 | 1213.2 ± 1.2 | 1196.6 ± 1.2
x1 = 0.3526 | 1258.69 ± 0.3 | 1253.67 ± 0.3 | 1248.66 ± 0.3 | 1243.66 ± 0.3 | 1236.8 ± 1.2 | 1222.4 ± 1.2 | 1208 ± 1.2 | 1193.8 ± 1.2
x1 = 0.4962 | 1321.98 ± 0.3 | 1317.04 ± 0.3 | 1312.1 ± 0.3 | 1307.18 ± 0.3 | 1234.1 ± 1.3 | 1220.9 ± 1.3 | 1207.8 ± 1.3 | 1194.9 ± 1.3
x1 = 0.6378 | 1366.6 ± 0.36 | 1361.72 ± 0.36 | 1356.84 ± 0.35 | 1351.97 ± 0.35 | 1233.5 ± 1.3 | 1221 ± 1.3 | 1208.7 ± 1.3 | 1196.5 ± 1.3
x1 = 0.8047 | 1405.56 ± 0.46 | 1400.72 ± 0.46 | 1395.89 ± 0.46 | 1391.07 ± 0.45 | 1235.6 ± 1.4 | 1223.8 ± 1.4 | 1212.2 ± 1.4 | 1200.7 ± 1.4
x1 = 0.9143 | 1425.59 ± 0.54 | 1420.79 ± 0.54 | 1415.99 ± 0.54 | 1411.2 ± 0.53 | 1236.9 ± 1.5 | 1225.4 ± 1.5 | 1214.1 ± 1.5 | 1203 ± 1.5
x1 = 1 | 1439.23 ± 0.61 | 1434.44 ± 0.61 | 1429.65 ± 0.6 | 1424.88 ± 0.6 | 1237.9 ± 1.5 | 1226.7 ± 1.5 | 1215.6 ± 1.5 | 1204.6 ± 1.5

— the NIST ThermoML archive (doi:10.1021/je400781b)
